Reference: patent US10940139B2, “Compounds that interact with the Ras superfamily for the treatment of cancers, inflammatory diseases, rasopathies, and fibrotic disease” (Shy Therapeutics LLC, priority 2017, dated 2021)

Test system: MIA-PACA2 pancreatic cancer cell lines
Assay: Cell proliferation assay (CellTiter 96 AQueous One)
Type: cell-based
Conditions: Homo sapiens, MIA PaCa-2; for inhibition at 30 µM: MIA-PACA2; for IC50: MIA-PACA2, same assay as the % inhibition (standard conditions)
Description: Cell lines: Tumor-derived pancreatic cancer cell lines MIA-PACA2 were purchased from ATCC and grown in complete DMEM-High Glucose medium supplemented with penicillin (100 U/mL), streptomycin (100 μg/mL), and 10% heat-inactivated FBS at 37° C. in a humidified incubator with 5% CO2.
Method: Cells are plated at 1000 cells/well density in 96-wells plate, starved ON, and the next day tested small molecules are added to the cells in the final concentration of 30 μM with 0.3% DMSO 3 hours prior to 10% FBS addition. After serum addition cells are incubated for 6 days at 37° C. in a humidified incubator with 5% CO2. For IC50 value determination, serial dilutions of compounds were added to cells under the same conditions.
Assay: At the end of the incubation period, cell cultures are tested using the CellTiter 96® AQueous One Solution Cell Proliferation Assay kit (Promega Corporation, Madison, Wis.) according to the manufacturer specifications. Briefly, assay is performed by adding 20 μl of the CellTiter 96 Aqueous One Solution Reagent directly to culture wells, followed by for 1-4 hours incubation at 37° C. in a humidified incubator with 5% CO2. At the end of incubation time, absorbance at 492 nm is recorded with the 96-well plate reader Eppendorf AF2200, and degree of small molecule-dependent proliferation inhibition is calculated from raw data assuming No Serum cells value as 100%.

For `O=C(Nc1nnc(-c2ccccn2)[nH]1)C1Cc2cc(Cl)ccc2O1` (centres unmarked) [drawing 1459], the inhibition at 30 µM was 76 to 100%.

With `O=C(Nc1nnc(-c2ccccn2)[nH]1)c1ccc(Oc2cccnc2)cc1` [drawing 1460] the inhibition at 30 µM was 76 to 100%.

With `O=C(Cc1ccc2c(c1)OCCO2)Nc1nnc(-c2ccccn2)[nH]1` [drawing 1461] the inhibition at 30 µM was 51 to 75%.

Molecule `N#CCc1ccc(OCC(=O)Nc2nnc(-c3ccccn3)[nH]2)cc1` [drawing 1462] has an inhibition at 30 µM of 1 to 25%.

In the case of `O=C(Nc1nnc(-c2ccccn2)[nH]1)c1ccc(=O)n(CCOc2ccccc2)n1` [drawing 1463], the inhibition at 30 µM is reported as 76 to 100%.

`Cc1cccc(OCC(=O)Nc2nnc(-c3ccccn3)[nH]2)c1` [drawing 1464] gave an inhibition at 30 µM of 51 to 75%.

`O=C(Nc1nnc(-c2ccccn2)[nH]1)C1CCN(C(=O)c2cccs2)CC1` [drawing 1465] showed an inhibition at 30 µM of 76 to 100%.

For `COc1cn(-c2ccccc2)nc1C(=O)Nc1nnc(-c2ccccn2)[nH]1` [drawing 1466], the inhibition at 30 µM was 51 to 75%.

`CN(CC(=O)Nc1nnc(-c2ccccn2)[nH]1)S(=O)(=O)c1ccccc1` [drawing 1467] was tested, and the inhibition at 30 µM was 1 to 25%.

With `O=C(Nc1nnc(-c2ccccn2)[nH]1)c1ccn(-c2cccc(Cl)c2)n1` [drawing 1468] the inhibition at 30 µM was 76 to 100%.

`CS(=O)(=O)N1CCCc2cc(C(=O)Nc3nnc(-c4ccccn4)[nH]3)ccc21` [drawing 1469] showed an inhibition at 30 µM of 76 to 100%.

`O=C(Nc1nnc(-c2ccccn2)[nH]1)c1ccc(=O)[nH]n1` [drawing 1470] was tested, and the inhibition at 30 µM was 25 to 50%.

For `COc1ccc(COCC(=O)Nc2nnc(-c3ccccn3)[nH]2)cc1` [drawing 1471], the inhibition at 30 µM was 1 to 25%.

In the case of `COc1ccc(OCc2nc(CNCCc3nnc4n3CCC4)cs2)cc1` [drawing 1472], the inhibition at 30 µM is reported as 76 to 100%.

Molecule `O=C(Nc1nc(-c2ccccn2)cs1)C1COc2ccccc2O1` (centres unmarked) [drawing 1473] has an inhibition at 30 µM of 76 to 100%.

In the case of `O=C(Nc1nc(-c2ccccn2)cs1)c1cccc(F)c1` [drawing 1474], the inhibition at 30 µM is reported as 76 to 100%.

`Cc1cc(C(=O)Nc2nc(-c3ccccn3)cs2)no1` [drawing 1475] gave an inhibition at 30 µM of 76 to 100%.

`O=C(Cn1c(=O)cnc2ccccc21)Nc1nc(-c2ccccn2)cs1` [drawing 1476] showed an inhibition at 30 µM of 76 to 100%.

Work on `O=C(Nc1nc(-c2ccccn2)cs1)c1ccc2nccnc2c1` [drawing 1477] yielded an inhibition at 30 µM of 76 to 100%.

Work on `O=C(Nc1nc(-c2ccccn2)cs1)c1ccc2[nH]cnc2c1` [drawing 1478] yielded an inhibition at 30 µM of 76 to 100%.

For `CS(=O)(=O)Cc1ccc(C(=O)Nc2nc(-c3ccccn3)cs2)cc1` [drawing 1479], the inhibition at 30 µM was 76 to 100%.

With `O=C(Nc1nc(-c2ccccn2)cs1)c1ccccn1` [drawing 1480] the inhibition at 30 µM was 76 to 100%.

`O=C(Cn1cnc2ccccc2c1=O)Nc1nc(-c2ccccn2)cs1` [drawing 1481] gave an inhibition at 30 µM of 76 to 100%.

`O=C(Nc1nc(-c2ccccn2)cs1)C1CC(=O)N(c2ccc3c(c2)OCCO3)C1` (centres unmarked) [drawing 1482] gave an inhibition at 30 µM of 76 to 100%.

`O=C(Nc1nc(-c2ccccn2)cs1)c1cccnc1` [drawing 1483] was tested, and the inhibition at 30 µM was 76 to 100%.

`O=C(Cc1cccc(F)c1)Nc1nc(-c2ccccn2)cs1` [drawing 1484] was tested, and the inhibition at 30 µM was 76 to 100%.

With `O=C(Nc1nc(-c2ccccn2)cs1)c1ccncc1` [drawing 1485] the inhibition at 30 µM was 76 to 100%.

With `O=C(Nc1nc(-c2ccccn2)cs1)c1ccc(F)cc1` [drawing 1486] the inhibition at 30 µM was 76 to 100%.

In the case of `COc1cccc(C(=O)Nc2nc(-c3ccccn3)cs2)c1` [drawing 1487], the inhibition at 30 µM is reported as 76 to 100%.

Molecule `COc1ccc(C(=O)Nc2nc(-c3ccccn3)cs2)cn1` [drawing 1488] has an inhibition at 30 µM of 76 to 100%.

Molecule `COc1ccc(-c2csc3[nH]c(-c4ccccn4)nc(=O)c23)cc1` [drawing 1489] has an inhibition at 30 µM of 76 to 100%.

For `O=c1nc(-c2ccccn2)[nH]c2scc(-c3cccs3)c12` [drawing 1490], the inhibition at 30 µM was 76 to 100%.

With `CNC(=O)c1sc2[nH]c(-c3ccccn3)nc(=O)c2c1C` [drawing 1491] the inhibition at 30 µM was 51 to 75%.

`O=c1nc(-c2ccccn2)[nH]c2scc(-c3ccccc3Cl)c12` [drawing 1492] was tested, and the inhibition at 30 µM was 76 to 100%.

With `Cc1sc2[nH]c(-c3ccccn3)nc(=O)c2c1-c1ccccc1` [drawing 1493] the inhibition at 30 µM was 76 to 100%.

With `O=c1nc(-c2ccccn2)[nH]c2ccsc12` [drawing 1494] the IC50 was > 1000 nM and the inhibition at 30 µM was 1 to 25%.

`O=c1nc(-c2ccccn2)[nH]c2sc(-c3ccccc3)cc12` [drawing 1495] showed an inhibition at 30 µM of 76 to 100%.

Work on `CCN(CC)C(=O)c1sc2[nH]c(-c3ccccn3)nc(=O)c2c1C` [drawing 1496] yielded an inhibition at 30 µM of 76 to 100%.

`Cc1c(C(=O)N(C)C)sc2[nH]c(-c3ccccn3)nc(=O)c12` [drawing 1497] gave an inhibition at 30 µM of 51 to 75%.

`O=c1nc(-c2ccccn2)[nH]c2c1CCC2` [drawing 1498] showed an inhibition at 30 µM of 1 to 25%.

Molecule `O=c1nc(-c2ccccn2)[nH]c2c1sc1ccccc12` [drawing 1499] has an inhibition at 30 µM of 76 to 100%.

In the case of `Cc1cc2c(=O)nc(-c3cc(OCC(F)F)ccn3)[nH]c2s1` [drawing 1500], the inhibition at 30 µM is reported as 76 to 100%.

Molecule `COc1ccc(NC(=O)CCc2c(C)nc(-c3ccccn3)nc2O)cn1` [drawing 1501] has an inhibition at 30 µM of 76 to 100%.

`Cc1nc(-c2ccccn2)nc(O)c1CCC(=O)NCCc1cccs1` [drawing 1502] showed an inhibition at 30 µM of 76 to 100%.

`Cc1nc(-c2ccccn2)nc(O)c1CCC(=O)Nc1cc(F)ccc1F` [drawing 1503] was tested, and the inhibition at 30 µM was 76 to 100%.

Molecule `Cc1nc(-c2ccccn2)nc(O)c1CCC(=O)NC1CCc2ccccc21` (centres unmarked) [drawing 1504] has an inhibition at 30 µM of 76 to 100%.

Molecule `Cc1nc(-c2ccccn2)nc(O)c1CCC(=O)Nc1ccc(C(C)C)cc1` [drawing 1505] has an inhibition at 30 µM of 76 to 100%.

Work on `COC(=O)c1cc(NC(=O)CCc2c(C)nc(-c3ccccn3)nc2O)ccc1Cl` [drawing 1506] yielded an inhibition at 30 µM of 76 to 100%.

For `Cc1nc(-c2ccccn2)nc(O)c1CCC(=O)Nc1cccc(OCC(=O)N2CCCC2)c1` [drawing 1507], the inhibition at 30 µM was 1 to 25%.

Work on `CCN(CC)S(=O)(=O)c1cc(C)c(C)c(NC(=O)CCc2c(C)nc(-c3ccccn3)nc2O)c1` [drawing 1508] yielded an inhibition at 30 µM of 76 to 100%.

`OCCNc1nc(-c2ccccn2)nc2scc(-c3ccccc3)c12` [drawing 1509] showed an inhibition at 30 µM of 76 to 100%.

For `COCC(C)Nc1nc(-c2ccccn2)nc2sc(C)c(-c3ccccc3)c12` (centres unmarked) [drawing 1510], the IC50 was > 1000 nM and the inhibition at 30 µM was 76 to 100%.

Molecule `CCc1cc(NNC(=O)c2ccc(C#N)cc2)nc(-c2ccccn2)n1` [drawing 1511] has an inhibition at 30 µM of 76 to 100%.

In the case of `COCCCn1ccc(Nc2cc(C)nc(-c3ccccn3)n2)n1` [drawing 1512], the inhibition at 30 µM is reported as 25 to 50%.

`CC(O)CNc1nc(-c2ccccn2)nc2scc(-c3ccccc3)c12` (centres unmarked) [drawing 1513] was tested, and the inhibition at 30 µM was 76 to 100%.

For `NC(=O)C1(CNc2nc(-c3ccccn3)nc3c2CCC3)CCCC1` [drawing 1514], the inhibition at 30 µM was 76 to 100%.

In the case of `OCCOCCNc1nc(-c2ccccn2)nc2scc(-c3ccccc3)c12` [drawing 1515], the inhibition at 30 µM is reported as 76 to 100%.

`Cc1sc2nc(-c3ccccn3)nc(NCCCO)c2c1-c1ccccc1` [drawing 1516] was tested, and the inhibition at 30 µM was 76 to 100%.

`COC(=O)c1cccc(CN2CCC(CSc3ccccc3)C2)c1C#N` (centres unmarked) [drawing 1517] gave an inhibition at 30 µM of 76 to 100%.

Molecule `COC(=O)c1cc(NCc2nc(CC(C)C)no2)ccc1Cl` [drawing 1518] has an inhibition at 30 µM of 76 to 100%.

With `Cc1cccc(CN(Cc2ccccn2)Cc2nccn2C)c1` [drawing 1519] the inhibition at 30 µM was 76 to 100%.

With `Cc1ccc(CN(Cc2ccco2)C(=O)c2oc3ccccc3c2C)cc1` [drawing 1520] the inhibition at 30 µM was 1 to 25%.

`Cc1ccc(O)c(CN(C)Cc2nccn2Cc2ccccc2)n1` [drawing 1521] showed an inhibition at 30 µM of 76 to 100%.
